Experimental data from ChEMBL document CHEMBL5512638, “Novel pyrrole based CB2 agonists: New insights on CB2 receptor role in regulating neurotransmitters' tone” (Eur J Med Chem, 2024).

Assays:
[1] = target: T1, Cannabinoid receptor 1 (Homo sapiens, UniProt P21554); experiment: Displacement of [3H]CP55940 from recombinant human CB1 receptor expressed in HEK293 cell membrane incubated for 90 mins by competition binding assay; format: cell membranes
[2] = target: T1, Cannabinoid receptor 1; experiment: Displacement of [3H]CP55940 from recombinant human CB1 receptor expressed in HEK293 cell membrane assessed as inhibition constant incubated for 90 mins by competition binding assay; format: cell membranes
[3] = target: T2, Cannabinoid receptor 2 (Homo sapiens, UniProt P34972); experiment: Displacement of [3H]CP55940 from recombinant human CB2 receptor expressed in HEK293 cell membrane incubated for 90 mins by competition binding assay; format: cell membranes
[4] = target: T2, Cannabinoid receptor 2; experiment: Displacement of [3H]CP55940 from recombinant human CB2 receptor expressed in HEK293 cell membrane assessed as inhibition constant incubated for 90 mins by competition binding assay; format: cell membranes
[5] = organism: Homo sapiens; experiment: Selectivity ratio of Ki for displacement of [3H]CP55940 from recombinant human CB2 receptor expressed in HEK293 cell membrane to Ki for displacement of [3H]CP55940 from recombinant human CB1 receptor expressed in HEK293 cell membrane; format: cell membranes
[6] = target: T2, Cannabinoid receptor 2; experiment: Agonist activity at human CB2 receptor expressed in CHO-K1 cells assessed as reduction in NKH-477 induced cAMP production by chemiluminescence based cAMP hunter assay; format: functional, cell-based
[7] = tested on: Mus musculus; experiment: Cognitive enhancing activity in scopolamine induced amnesia male C57/BL6J mouse model assessed as latency time to enter novel arm at 1 mg/kg, ip preadministered with compound for 10 mins followed by scopolamine administration for 30 mins and measured after 30 mins by Y-maze test (reference value: 21.93 +/- 0.78 sec); format: functional; settings: time 70 min, 1.167 h
[8] = Chemical stability of compound in phosphate buffer at pH 7.4 assessed as compound remaining at 5 uM measured after 0.5 hrs by UHPLC-MS analysis; format: physicochemical; settings: read-out: Stability
[9] = Chemical stability of compound in phosphate buffer at pH 7.4 assessed as compound remaining at 5 uM measured after 1 hrs by UHPLC-MS analysis; format: physicochemical; settings: read-out: Stability
[10] = Chemical stability of compound in phosphate buffer at pH 7.4 assessed as compound remaining at 5 uM measured after 1.5 hrs by UHPLC-MS analysis; format: physicochemical; settings: read-out: Stability
[11] = Chemical stability of compound in phosphate buffer at pH 7.4 assessed as compound remaining at 5 uM measured after 2 hrs by UHPLC-MS analysis; format: physicochemical; settings: read-out: Stability

T1 sequence (P21554 whole entry): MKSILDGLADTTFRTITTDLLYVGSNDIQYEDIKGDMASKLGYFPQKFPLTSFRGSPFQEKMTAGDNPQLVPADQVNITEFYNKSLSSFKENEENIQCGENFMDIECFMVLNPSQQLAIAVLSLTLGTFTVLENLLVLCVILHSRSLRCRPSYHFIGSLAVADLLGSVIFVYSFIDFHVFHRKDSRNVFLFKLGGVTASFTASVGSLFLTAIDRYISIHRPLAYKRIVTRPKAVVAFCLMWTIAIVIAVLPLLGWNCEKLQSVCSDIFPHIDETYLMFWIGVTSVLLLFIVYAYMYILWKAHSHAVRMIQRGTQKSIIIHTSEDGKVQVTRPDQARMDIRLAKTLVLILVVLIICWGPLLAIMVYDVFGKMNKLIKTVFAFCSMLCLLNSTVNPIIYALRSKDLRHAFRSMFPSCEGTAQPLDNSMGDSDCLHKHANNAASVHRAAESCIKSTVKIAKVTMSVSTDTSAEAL
T2 sequence (P34972 whole entry): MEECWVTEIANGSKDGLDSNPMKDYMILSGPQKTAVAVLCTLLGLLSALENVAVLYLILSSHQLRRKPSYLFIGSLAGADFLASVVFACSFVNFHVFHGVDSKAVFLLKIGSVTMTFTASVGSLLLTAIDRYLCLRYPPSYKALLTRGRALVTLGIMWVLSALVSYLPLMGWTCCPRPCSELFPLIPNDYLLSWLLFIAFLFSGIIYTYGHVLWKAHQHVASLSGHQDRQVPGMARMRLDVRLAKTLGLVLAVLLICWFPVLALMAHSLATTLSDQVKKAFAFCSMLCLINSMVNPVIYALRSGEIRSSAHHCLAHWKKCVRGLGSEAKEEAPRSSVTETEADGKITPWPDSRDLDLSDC

SMILES	IC50 ([1]; read-out: IC50) [µM]	Ki ([2]; read-out: Ki) [µM]	IC50 ([3]; read-out: IC50) [µM]	Ki ([4]; read-out: Ki) [µM]	other results
Cc1ccc(S(=O)(=O)n2cccc2C(=O)c2ccc(Cl)cc2)cc1	–	–	–	–	IC50 ([1]; hek293): Not Determined(Insoluble); Ki ([2]; hek293): Not Determined(Insoluble); IC50 ([3]; hek293): Not Determined(Insoluble); Ki ([4]; hek293): Not Determined(Insoluble)
COC(=O)CCCn1cccc1C(=O)c1ccccc1Cl	> 10	> 10	> 10	> 10	–
O=C(CCO)N[C@@H](Cc1ccc(O)cc1)C(=O)Nc1ccc(O)cc1	> 10	> 10	> 10	> 10	–
CC(=O)OCCCCn1cccc1C(=O)c1ccccc1Cl	> 10	> 10	7.91	1.26	–
CC(=O)Oc1cccc(Cn2cccc2C(=O)c2ccccc2Cl)c1	> 10	> 10	9.83	1.56	–
O=C(CCO)N[C@@H](Cc1c[nH]c2ccccc12)C(=O)Nc1ccc(O)cc1	> 10	> 10	> 10	> 10	–
O=C(c1ccccc1Cl)c1cccn1CCCCO	> 10	> 10	> 10	> 10	–
CCCCCn1cccc1C(=O)c1ccc(C)cc1	> 10	> 10	> 10	> 10	–
Cc1ccc(NC(=O)c2cccn2Cc2ccc(F)cc2)cc1	6.13	1.03	1.32	0.27	Ratio Ki [5]: 5
O=C(NCCO)[C@@H]1Cc2ccccc2CN1C(=O)c1ccc(O)cc1	> 10	> 10	> 10	> 10	–
O=C(NCc1cccc(O)c1)c1cccn1Cc1ccc(F)cc1	> 10	> 10	> 10	> 10	–
Nc1cccc(C(=O)Nc2cccc(NC(=O)CO)c2)c1	> 10	> 10	> 10	> 10	–
O=C(c1ccccc1Cl)c1cccn1CC12CC3CC(CC(C3)C1)C2	> 10	> 10	4.22	0.67	–
CCCC(C)(C)c1ccc2c(c1)OC(C)(C)[C@@H]1CC=C(C)C[C@@H]21	–	0.281	–	0.005	EC50 [6]: 0.09 µM
COc1ccc(C(=O)c2c(C)n(CCN3CCOCC3)c3cc(I)ccc23)cc1	–	–	–	–	Time [7]: 9.28 s
O=C(O)CCCn1cccc1C(=O)c1ccccc1Cl	> 10	> 10	> 10	> 10	–
O=C(O)CC(=O)N[C@@H](Cc1c[nH]c2ccccc12)C(=O)Nc1ccc(O)cc1	> 10	> 10	> 10	> 10	–
Cc1ccc(CNC(=O)c2cccn2Cc2ccc(F)cc2)cc1	> 10	> 10	> 10	> 10	–
Nc1ccc(CNC(=O)c2cccn2Cc2ccc(F)cc2)cc1	> 10	> 10	> 10	> 10	–
O=C(Nc1cccc(CO)c1)c1cccn1Cc1ccc(F)cc1	> 10	> 10	1.59	0.25	–

SMILES	IC50 ([1]; read-out: IC50) [µM]	Ki ([2]; read-out: Ki) [µM]	IC50 ([3]; read-out: IC50) [µM]	Ki ([4]; read-out: Ki) [µM]	other results
O=C(c1ccccc1Cl)c1cccn1Cc1cccc(O)c1	> 10	> 10	> 10	> 10	–
O=C(CO)Nc1cccc(NC(=O)c2cccnc2)c1	> 10	> 10	> 10	> 10	–
Cc1ccc(S(=O)(=O)n2cccc2C(=O)c2ccccc2)cc1	> 10	> 10	> 10	> 10	–
Cc1ccc(C(=O)c2cccn2S(=O)(=O)c2ccc(C)cc2)cc1	> 10	> 10	> 10	> 10	–
CCCCCNC(=O)c1cccn1Cc1ccc(F)cc1	> 10	> 10	> 10	> 10	–
CCOC(=O)CCCn1cccc1C(=O)c1ccccc1Cl	> 10	> 10	> 10	> 10	–
O=C(NCc1ccccc1)c1cccn1Cc1ccc(F)cc1	> 10	> 10	4.6	0.706	–
O=C(OCCCCn1cccc1C(=O)c1ccccc1Cl)c1ccccc1	> 10	> 10	> 10	> 10	–
O=C(NC12CC3CC(CC(C3)C1)C2)c1cccn1Cc1ccc(F)cc1	> 10	> 10	0.07	0.01	EC50 [6]: 2.36 µM; remaining at 0.5 h, 5 µM [8]: 98.6%; remaining at 1 h, 5 µM [9]: 98.8%; remaining at 1.5 h, 5 µM [10]: 99.2%; remaining at 2 h, 5 µM [11]: 102%
O=C(NCc1ccco1)c1cccn1Cc1ccc(-c2ccccc2)cc1	> 10	> 10	1.47	0.23	–
O=C(c1ccc(Cl)cc1)c1cccn1Cc1ccco1	> 10	> 10	> 10	> 10	–
O=C(c1ccccc1Cl)c1cccn1Cc1ccc(O)cc1	> 10	> 10	> 10	> 10	–
O=C(NCc1ccc(O)cc1)c1cccn1Cc1ccc(F)cc1	> 10	> 10	> 10	> 10	–
N=C(N)NCCCn1cccc1C(=O)c1ccccc1Cl	> 10	> 10	> 10	> 10	–
Cc1ccc(Cn2cccc2C(=O)c2ccc(Cl)cc2)cc1	> 10	> 10	> 10	> 10	–
CC(=O)OCCn1cccc1C(=O)c1ccccc1Cl	> 10	> 10	> 10	> 10	–
CC(=O)OCCCCn1cccc1C(=O)NCc1ccccc1	> 10	> 10	> 10	> 10	–
O=C(Nc1ccc(O)cc1)[C@@H]1Cc2ccccc2CN1C(=O)CCO	> 10	> 10	> 10	> 10	–
CC(=O)NCCCCn1cccc1C(=O)c1ccccc1Cl	> 10	> 10	> 10	> 10	–
CC(=O)Oc1ccc(Cn2cccc2C(=O)c2ccccc2Cl)cc1	> 10	> 10	> 10	> 10	–
